Results: patent US10028961B2, “Therapeutically active compounds and their methods of use” (AGIOS PHARMACEUTICALS, INC., priority 2013, dated 2018)
Like-named read-outs stand apart in the source and are kept apart here.

Key:
[1] = tested on: U87MG pLVX-IDH2 R140Q-neo cells; experiment: U87MG pLVX-IDH2 R140Q-neo cell based assay, 2-HG by LC-MS
[2] = target: IDH1 wt/IDH1 R132H heterodimer (Homo sapiens (Human), UniProt O75874, R132H); experiment: In vitro assay for IDH1m R132H inhibitors, IDH1 wt/IDH1 R132H heterodimer, NADPH depletion (diaphorase/resazurin); assay type: biochemical
Protocol: The following describes the experimental procedures that can be used to obtain data on columns 2 and 4 of Table 4 and column 2 of Table 5.
In the primary reaction, the reduction of α-KG acid to 2-HG is accompanied by a concomitant oxidation of NADPH to NADP. The amount of NADPH remaining at the end of the reaction time is measured in a secondary diaphorase/resazurin reaction in which the NADPH is consumed in a 1:1 molar ratio with the conversion of resazurin to the highly fluorescent resorufin.
The mixture of compound, enzyme, and cofactor is pre-incubated at room temperature for 1 hr prior to the addition of alpha-ketoglutarate. To perform the secondary reaction, 10 uL of 1× buffer containing 36 μg/ml diaphorase and […] resazurin is added to the primary reaction and incubated for a further 5 minutes at 25° C. […] Compounds or compound dilutions are prepared in 100% DMSO concentration and diluted 1:50 into the final reaction. […] IC50s are determined.
IDH1 or IDH2 wildtype (wt) and mutant heterodimers are expressed and purified by methods known in the art. […] Co-expression of IDH1wt-his and IDH1R132C-flag is carried out in sf9 insect cells. Cells (25 g) are resuspended in 250 ml of 50 mM Tirs, 500 mM NaCl, pH7.4, at 4° C. with stirring. Cells are disrupted with 4 passes through an M-Y110 Micro fluidizer (Microfluidics) set to 500 psi, and then centrifuged at 22,000 rcf for 20 min at 4° C. The supernatant is harvested and loaded at 15 cm/h on a Histrap FF 5*1 ml column (GE) which is equilibrated with 50 mM Tirs, 500 mM NaCl, pH7.4. Host cell contaminants are removed by washing the column with equilibration buffer followed by equilibration buffer containing 20 mM imidazole and 60 mM imidazole to baseline. IDH1wt-his homodimer and IDH1wt-his/IDH1R132C-flag are eluted by equilibration buffer containing 250 mM imidazole. Fractions eluted by 250 mM imidazole are pooled together and loaded at 15 cm/h onto a column pre-packed with 10 ml ANTI-FLAG® M2 Affinity Gel (Sigma), the column is equilibrated with 50 mM Tris, 500 mM NaCl, pH7.4. After washing with equilibration buffer, IDH1wt-his/IDH1R132C-flag heterodimer is eluted by equilibration buffer containing flag peptide (0.2 mg/ml). Aliquots of IDH1wt-his/IDH1R132C-flag are flash frozen in liquid N2 and stored at −80° C. Same conditions are used for the purification of IDH1wt-his/IDH1R132H-flag.

[3] = tested on: Neurosphere cells (TS603); experiment: Cellular assay for IDH1m R132H inhibitors, 2-HG by LC-MS in neurosphere cells (TS603); assay type: cell-based; details: 2-HG in media at 48 hours
Protocol: Cellular Assay for IDH1m R132H Inhibitors.
The following describes the experimental procedures that can be used to obtain data in column 4 of Table 5.
Neurosphere cells (TS603) are grown at 37 C in 5% CO2 in Stem Cell Technologies NeuroCult™ NS-A media supplemented with 1% Primocin, 1% Normocin, 0.0002% Heparin, 20 ng/mL EGF and 10 ng/mL bFGF. Cells are harvested, pelleted and resuspended in Accumax for cell dissociation and counting. Cells are counted and then resuspended in NeuroCult media with 2× heparin, EGF and bFGF at 4 million cells/10 mL media. 100 μl of cell solution are plated in each well of a 96 well with the exception of columns 1 and 12. Columns 1 and 12 contain 200 μL PBS. Compound dose responses are set up at a 2× concentration in Neurocult media without heparin, EGF and bFGF. The final concentration of DMSO is 0.25%. DMSO only control wells are plated in row H. The plates are then placed in the incubator for 48 hours. At 48 hours, 100 μl of media is removed from each well and analyzed by LC-MS for 2-HG concentrations. The cell plate is placed back in the incubator for another 24 hours. At 72 hours post compound addition, 10 mL/plate of Promega Cell Titer Glo reagent is thawed and mixed. The cell plate is removed from the incubator and allowed to equilibrate to room temperature. Then 100 μl of Promega Cell Titer Glo reagent is added to each well of media. The cell plate is then placed on an orbital shaker for 10 minutes and then allowed to sit at room temperature for 20 minutes. The plate is then read for luminescence with an integration time of 500 ms.

[4] = target: IDH2 R140Q (Homo sapiens (Human), UniProt P48735, R140Q); experiment: In vitro assay for IDH2m R140Q inhibitors, cofactor depletion assay; assay type: biochemical; details: IDH2 R140Q enzyme
Text: The following describes the experimental procedures used to obtain data on column 7 of Table 4.
The reaction is terminated by the addition of a second enzyme, diaphorase, and a corresponding substrate, resazurin. Diaphorase reduces resazurin to the highly fluorescent resorufin with the concomitant oxidation of NADPH to NADP, both halting the IDH2 reaction by depleting the available cofactor pool and facilitating quantitation of the amount of cofactor remaining after a specific time period through quantitative production of an easily detected fluorophore.
The test compound is then incubated for one hour at room temperature with the enzyme; before starting the IDH2 reaction with the addition of 10 μl of substrate mix containing 4 μM NADPH and 1.6 mM α-KG in the buffer described above. After a further 16 hours of incubation at room temperature, the reaction is halted and the remaining NADPH measured through conversion of resazurin to resorufin by the addition of 25 μl Stop Mix (36 μg/ml diaphorase enzyme and 60 μM resazurin; in buffer).

[5] = IDH1 wt/R132H heterodimer, NADPH/NADP, not saturated, read-out: IDH1 wt/R132H NADPH/NADP IC50 not saturated
[6] = IDH1 wt/IDH1 R132H heterodimer, 300 μM NADP (saturated), read-out: IDH1 wt/R132H NADPH/NADP IC50 saturated

Sequence of IDH1 wt/IDH1 R132H heterodimer (O75874 whole entry R132H): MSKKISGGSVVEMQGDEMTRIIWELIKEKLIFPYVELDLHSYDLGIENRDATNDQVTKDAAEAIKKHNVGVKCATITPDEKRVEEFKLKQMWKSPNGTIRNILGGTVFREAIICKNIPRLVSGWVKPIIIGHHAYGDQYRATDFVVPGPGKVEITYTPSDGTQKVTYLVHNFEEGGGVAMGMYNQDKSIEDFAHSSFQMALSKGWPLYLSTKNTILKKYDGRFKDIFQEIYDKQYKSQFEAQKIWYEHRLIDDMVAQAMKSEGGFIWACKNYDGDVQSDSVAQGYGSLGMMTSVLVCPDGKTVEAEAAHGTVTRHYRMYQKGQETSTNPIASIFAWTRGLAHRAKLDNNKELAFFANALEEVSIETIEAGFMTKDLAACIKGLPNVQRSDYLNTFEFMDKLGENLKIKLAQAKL
Sequence of IDH1 wt/IDH1 R132H heterodimer (O75874 whole entry, stated change not applied): as the sequence (O75874 whole entry R132H) above, with H132R counted along it
Sequence of IDH2 R140Q (P48735 40-452 R140Q): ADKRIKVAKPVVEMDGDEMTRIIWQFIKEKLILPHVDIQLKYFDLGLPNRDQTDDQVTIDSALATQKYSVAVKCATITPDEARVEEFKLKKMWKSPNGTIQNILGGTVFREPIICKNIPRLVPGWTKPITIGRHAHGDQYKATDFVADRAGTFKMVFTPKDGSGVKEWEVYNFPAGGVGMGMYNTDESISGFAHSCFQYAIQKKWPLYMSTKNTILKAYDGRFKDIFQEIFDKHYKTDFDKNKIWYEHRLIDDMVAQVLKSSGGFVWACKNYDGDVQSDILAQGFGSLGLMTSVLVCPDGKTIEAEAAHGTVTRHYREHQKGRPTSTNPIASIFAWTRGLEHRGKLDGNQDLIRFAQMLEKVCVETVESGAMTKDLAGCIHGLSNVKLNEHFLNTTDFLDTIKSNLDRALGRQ

| SMILES | IC50 ([1]; Homo sapiens, U-87 MG) | IC50 [2, 5] | IC50 [3] | IC50 [4] | IC50 [2, 6] | IC50 [1] |
| --- | --- | --- | --- | --- | --- | --- |
| FC1(F)CCC(Nc2nc(NC3CC4(C3)CC(F)(F)C4)nc(-c3cccc(C(F)(F)F)n3)n2)CC1 [Compound 228] | < 50 nM | < 50 nM | < 50 nM | < 50 nM | – | – |
| CC[C@H](Nc1nc(N[C@@H](CC)C(F)(F)F)nc(-c2cncc(C(F)(F)F)n2)n1)C(F)(F)F [Compound 339] | < 50 nM | – | < 50 nM | < 50 nM | < 50 nM | – |
| N#CC1(c2cc(Nc3nc(N[C@H]4CCC(F)(F)C4)nc(-c4nccc(C(F)(F)F)n4)n3)ccn2)CC1 [Compound 376] | < 50 nM | – | – | < 50 nM | > 1000 nM | – |
| C[C@@H](Nc1nc(Nc2ccnc(C3(C#N)CC3)c2)nc(-c2cccc(C(F)(F)F)n2)n1)C(F)(F)F [Compound 352] | < 50 nM | – | < 50 nM | < 50 nM | < 50 nM | – |
| FC1(F)CCC(Nc2nc(NC3CCC(F)(F)C3)nc(-c3cncc(Cl)n3)n2)C1 (centres unmarked) [Compound 129] | < 50 nM | < 50 nM | < 50 nM | < 50 nM | – | – |
| CC(F)(F)c1cncc(-c2nc(NC3CCC(F)(F)CC3)nc(NC3CCC(F)(F)CC3)n2)n1 [Compound 374] | < 50 nM | – | < 50 nM | < 50 nM | 50 to 100 nM | – |
| FC1(F)CCC(Nc2nc(NC3CC(c4ccccc4)C3)nc(-c3cccc(C(F)(F)F)n3)n2)C1 (centres unmarked) [Compound 208] | – | < 50 nM | < 50 nM | – | – | – |
| N#CC1(c2cc(Nc3nc(NC4CCC(F)(F)CC4)nc(-c4cncc(C(F)F)n4)n3)ccn2)CC1 [Compound 338] | – | – | < 50 nM | – | 50 to 100 nM | – |
| C[C@@H](Nc1nc(N[C@H](C)C2CC2)nc(-c2cccc3[nH]ccc23)n1)C1CC1 [Compound 396] | – | – | – | 50 to 100 nM | > 1000 nM | 50 to 100 nM |
| C[C@@H](Nc1nc(N[C@H](C)C2CC2)nc(-c2cccc(N)n2)n1)C1CC1 [Compound 285] | > 1000 nM | 100 to 1000 nM | – | > 1000 nM | – | – |
| C[C@@H](Nc1nc(Nc2ccnc(C3(C#N)CC3)c2)nc(-c2cncc(C(F)F)n2)n1)C(F)(F)F [Compound 336] | – | – | < 50 nM | – | < 50 nM | – |
| C[C@@H](Nc1nc(N[C@H](C)C2CC2)nc(-c2cncc(Cl)c2)n1)C1CC1 [Compound 278] | > 1000 nM | 100 to 1000 nM | – | > 1000 nM | – | – |
| FC1(F)CCC(Nc2nc(NC3CCN(c4ccccc4)C3)nc(-c3cccc(C(F)(F)F)n3)n2)C1 (centres unmarked) [Compound 219] | – | < 50 nM | < 50 nM | – | – | – |
| C[C@H](Nc1nc(Nc2ccnc(C3(C#N)CC3)c2)nc(-c2cncc(C(F)F)n2)n1)C(F)(F)F [Compound 337] | – | – | < 50 nM | – | < 50 nM | – |
| FC1(F)CCC(Nc2nc(NC3CCC(F)(F)CC3)nc(-c3cccc(C4CC4)n3)n2)CC1 [Compound 305] | – | > 1000 nM | 100 to 1000 nM | – | – | – |
| FC1(F)CCC(Nc2nc(NC3CCC(F)(F)CC3)nc(-c3cc(C(F)(F)F)ccn3)n2)CC1 [Compound 318] | – | > 1000 nM | ≥ 1000 nM | – | – | – |
| FC1(F)CCC(Nc2nc(NC3Cc4cc(Br)cc(Br)c4C3)nc(-c3cccc(C(F)(F)F)n3)n2)C1 (centres unmarked) [Compound 254] | – | 50 to 100 nM | 50 to 100 nM | – | – | – |
| C[C@@H](Nc1nc(N[C@H](C)C(F)(F)F)nc(-c2cccc(C(F)(F)F)n2)n1)C(F)(F)F [Compound 335] | – | – | < 50 nM | – | < 50 nM | – |

Next, values leading:

| IC50 ([1]; Homo sapiens, U-87 MG) | IC50 [2, 5] | IC50 [3] | IC50 [4] | IC50 [2, 6] | IC50 [1] | SMILES |
| --- | --- | --- | --- | --- | --- | --- |
| – | < 50 nM | < 50 nM | – | – | – | C[C@@H](Nc1nc(NC2CCc3ccccc32)nc(-c2cccc(C(F)(F)F)n2)n1)C1CC1 (some centres unmarked) [Compound 135] |
| < 50 nM | – | < 50 nM | < 50 nM | < 50 nM | – | C[C@@H](Nc1nc(Nc2ccnc(-c3ccccc3)c2)nc(-c2cccc(C(F)(F)F)n2)n1)C(F)(F)F [Compound 359] |
| < 50 nM | – | – | < 50 nM | 100 to 1000 nM | – | CC(C)(O)CNc1nc(Nc2cc(F)cc(C#N)c2)nc(-c2cccc(C(C)(F)F)n2)n1 [Compound 398] |
| < 50 nM | < 50 nM | < 50 nM | < 50 nM | – | – | N#Cc1cc(Nc2nc(NC3CCC(F)(F)CC3)nc(-c3cccc(C(F)(F)F)n3)n2)ccn1 [Compound 204] |
| 100 to 1000 nM | 100 to 1000 nM | – | 100 to 1000 nM | – | – | CC(C)(O)CNc1nc(Nc2ccnc(C#N)c2)nc(-c2cccc(C(F)(F)F)n2)n1 [Compound 288] |
| < 50 nM | – | < 50 nM | < 50 nM | < 50 nM | – | CC(F)(F)c1cc(Nc2nc(N[C@H]3CCC(F)(F)C3)nc(-c3cccc(C(F)(F)F)n3)n2)ccn1 [Compound 360] |
| – | < 50 nM | < 50 nM | – | – | – | CC(Cc1ccccc1)Nc1nc(N[C@H](C)C2CC2)nc(-c2cccc(C(F)(F)F)n2)n1 (some centres unmarked) [Compound 206] |
| < 50 nM | – | < 50 nM | < 50 nM | < 50 nM | – | C[C@@H](Nc1nc(Nc2ccnc(-c3ccc(F)cc3)c2)nc(-c2cccc(C(F)(F)F)n2)n1)C(F)(F)F [Compound 371] |
| < 50 nM | – | < 50 nM | < 50 nM | < 50 nM | – | C[C@@H](Nc1nc(Nc2ccnc(C3(C#N)CC3)c2)nc(-c2cccc(C(C)(F)F)n2)n1)C(F)(F)F [Compound 348] |
| < 50 nM | – | < 50 nM | < 50 nM | 50 to 100 nM | – | FC(F)(F)c1cc(Nc2nc(NCC3CC3(F)F)nc(-c3cccc(C(F)(F)F)n3)n2)ccn1 (centres unmarked) [Compound 365] |
| < 50 nM | – | – | < 50 nM | 100 to 1000 nM | – | FC1(F)CC[C@H](Nc2nc(Nc3ccnc(C(F)(F)F)c3)nc(-c3ccnc(C(F)(F)F)n3)n2)C1 [Compound 343] |
| < 50 nM | – | – | < 50 nM | 100 to 1000 nM | – | CC(C)(O)CNc1nc(Nc2cc(F)cc(C(F)(F)F)c2)nc(-c2cccc(C(C)(F)F)n2)n1 [Compound 397] |
| – | < 50 nM | < 50 nM | – | – | – | FC1(F)CCC(Nc2nc(NC3Cc4ccc(Br)cc4C3)nc(-c3cccc(C(F)(F)F)n3)n2)C1 (centres unmarked) [Compound 225] |
| < 50 nM | 100 to 1000 nM | – | < 50 nM | – | – | CC(C)(O)CNc1nc(Nc2ccnc(C3(C#N)CC3)c2)nc(-c2cccc(C(F)(F)F)n2)n1 [Compound 259] |
